SMILES strings stand for the structures. Marks after values point to notes of the source that are not given here.

Here are results for 2 molecules from paper PMC9537572, “Elucidation of the binding mechanism of astragaloside IV derivative with human serum albumin and its cardiotoxicity in zebrafish embryos” (Frontiers in Pharmacology, 2022).

One series has as its system zebrafish. The series is described as follows: Arachidonic acid-induced thrombosis in zebrafish. As to conditions: for Staining intensity of cardiac red blood cells (pixels) (mean ± se): 3 h pretreatment, arachidonic acid 1.5 h, n = 10; for Antithrombotic effect (%): vs. model group, arachidonic acid-induced thrombosis. It is filed as in vivo. The method, then:
A total of 270 melanin allele mutant translucent albino strain zebrafish at 3 dpf were randomly selected, with 30 zebrafish per well in six-well plates. The concentrations of LS-102 were 6.25, 12.5, 25, 50, and 100 µg/ml, while that of AGS IV was 100 µg/ml, and the positive control drug aspirin was 25 µg/ml. After treatment with LS-102 and AGS IV for 3 h, arachidonic acid aqueous solution was administered for 1.5 h to induce a thrombosis model in zebrafish in all experimental groups except the normal group. After staining with o-anisidine, zebrafish were randomly selected from each experimental group and observed under a dissecting microscope and photographed. Data were collected to qualitatively evaluate thrombosis in zebrafish, and the intensity of cardiac erythrocyte staining (length of venous thrombus vs. number of cardiac erythrocytes) in zebrafish was analyzed and counted to establish, the preventive effect of LS-102 and AGS IV with aspirin on thrombosis in zebrafish. The formula was calculated as follows:
Thromboprophylactic effect (%) = S (drug administration group)−S (model group)/S (nomal control group)−S (model group)×100%

Series [1] concerns zebrafish embryos. The series is described as follows: Astemizole-induced toxicity in zebrafish heart development. As to conditions: 250 µg/mL, n=30. The series is classed as in vivo. On the procedure:
A total of 270 wild-type AB zebrafish at 2 h post-fertilization (2 hpf) were randomly selected, and 30 zebrafish were plated in each well of a six-well plates. The concentrations of LS-102 were 27.8, 83.3 and 250 µg/ml, while that of AGS IV was 250 µg/mL. A normal control group (fish culture water) and a 4 µM astemizole model control group were also established. After LS-102 and AGS IV were cotreated with astemizole for 48 h, zebrafish heart development was observed and photographed under a microscope to evaluate the ameliorative effect of LS-102 and AGS IV on astemizole-induced toxicity in zebrafish heart development.

The conditions of series [2]: ref Xu et al., 2016; cited from earlier work.
In series [3] the target is T1, HSA (Homo sapiens, UniProt P02768). The series is described as follows: Site marker competitive experiments (warfarin, ibuprofen) by equilibrium dialysis. The series is classed as in vitro ADME. The conditions noted are these: drug 0.476 mg/ml, n = 3, read-out: Plasma protein binding (converted). The method, then: The site marker competitive experiments were performed using two classical site probes, warfarin and ibuprofen, which were selected as the markers of subdomain IIA (site I) and subdomain IIIA (site II) separately of HAS ([Ghuman et al., 2005]). The procedure was consistent with the method described in section 2.5, except that the concentrations of AGS IV and LS-102 were both fixed at 0.476 mg/ml, while the external dialysis solution was changed to contain the probe with a final concentration of 0, 0.06, 0.3, 1.2 mg/ml PBS solution. Briefly, the AGS IV/LS-102 HSA mixture (0.5 ml drug and 0.5 ml HSA) was separately incubated with three different concentrations of probe to evaluate the effects of warfarin or ibuprofen on drug-protein binding influence. Three replicates of each concentration were prepared. After equilibrium dialysis, the internal and external dialysates were analyzed by UHPLC-MS/MS.
T1 sequence (P02768 25-609): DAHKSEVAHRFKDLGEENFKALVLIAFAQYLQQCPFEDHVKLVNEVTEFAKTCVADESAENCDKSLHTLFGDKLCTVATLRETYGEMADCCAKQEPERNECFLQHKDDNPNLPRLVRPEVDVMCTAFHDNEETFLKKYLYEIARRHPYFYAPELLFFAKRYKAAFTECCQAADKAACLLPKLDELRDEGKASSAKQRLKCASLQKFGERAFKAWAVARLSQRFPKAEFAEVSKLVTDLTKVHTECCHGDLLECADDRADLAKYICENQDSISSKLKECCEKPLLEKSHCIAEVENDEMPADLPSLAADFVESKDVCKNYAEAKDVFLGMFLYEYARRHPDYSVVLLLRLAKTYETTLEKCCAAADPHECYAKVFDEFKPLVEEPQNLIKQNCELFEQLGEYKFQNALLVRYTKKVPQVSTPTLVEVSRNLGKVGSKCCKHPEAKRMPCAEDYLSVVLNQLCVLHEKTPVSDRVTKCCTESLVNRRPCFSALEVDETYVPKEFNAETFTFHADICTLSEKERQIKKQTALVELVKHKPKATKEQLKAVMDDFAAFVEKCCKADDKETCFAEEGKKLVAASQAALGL
(Equilibrium dialysis compares concentrations on both sides of a semipermeable membrane.)

Series [4] has as its system zebrafish embryos. In words: Astemizole-induced cardiotoxicity in zebrafish embryos: heart rate and SV-BA spacing. The series is classed as in vivo. As to conditions: 4 µM astemizole; for Heart rate (beats/min) (Mean±SE) / SV-BA spacing (µm) (Mean±SE): 250 µg/ml, n = 10. The method, then:
A total of 270 wild-type AB zebrafish at 3 dpf were randomly selected, and 30 zebrafish were plated in each well of a six-well plates. The concentrations of LS-102 were 27.8, 83.3 and 250 µg/ml, AGS IV was 250 µg/mL. A normal control group (fish culture water) and a 4 µM astemizole model control group were also established. Ten zebrafish were randomly selected from each group, and the heart rate and venous sinus-to-arterial bulb distance (SV-BA) of zebrafish were observed under a dissecting microscope after 2 h, 6 h and 24 h of LS-102 and AGS IV treatment. Images were collected by photographing, and the ameliorative effect of LS-102 and AGS IV on astemizole-induced cardiotoxicity in zebrafish was evaluated by the statistical significance of the heart rate and the SV-BA interval index.

Series [5] concerns the target T1, HSA. In words: Plasma protein binding rate by equilibrium dialysis and UHPLC-MS/MS. It is filed as in vitro ADME. The conditions noted are these: human, plasma, equilibrium dialysis 72 h at 4 °C, n = 3, read-out: Protein binding rate (%, Mean±SD) (converted). The method, then: The binding rate of AGS IV/LS-102 and HSA was determined using a slightly modified equilibrium dialysis method ([Metsu et al., 2020]). […] The stock solutions of HSA (0.5 ml) and drug group (0.5 ml) were placed in a dialysis membrane bag that was ligated at both ends and then immersed in a test tube filled with 50 ml of PBS solution for 72 h at 4 °C. After equilibrium, a 0.5-ml solution of outer dialysate and internal dialysate was collected into a 2-ml EP tube, and 10 µL IS (digoxin, 0.1 mg/ml) solution was added to each tube. Both samples were added to 1.5 ml of acetonitrile and vortexed for 3 min, and then the samples were separated via centrifugation at 18,000 × g for 20 min. The supernatants were transferred to another EP tube and dried under a nitrogen stream. The residue was redissolved in 1 ml methanol, sonicated for 2 min, vortexed for 3 min, and centrifuged at 18,000 × g for 10 min. The supernatant was filtered with a 0.22 µm microporous syringe filter in a 2 ml sample vial, and 1 µL was injected into the UHPLC-MS/MS system for analysis. The plasma protein binding rate was calculated according to the following formula ([Talbert et al., 2002]): Plasma binding rate=Internal drug concentration−External drug concentration/Initial drug concentration ×100%

For `CC(=O)Oc1ccccc1C(=O)O` [Aspirin, aspirin, reference compound], the “Staining intensity of cardiac red blood cells (pixels) (mean ± se)” value with zebrafish (25 µg/ml) amounted to 2036 ± 92 pixels; in the series on zebrafish (25 µg/ml, listed as aspirin), 2036 pixels. The “Antithrombotic effect (%)” value with zebrafish (25 µg/ml) was 70^*** %; with zebrafish (25 µg/ml, listed as aspirin), 70%.

For the molecule `CC(C)(O)C1CCC(C)(C2C(O)CC3(C)C4CC(OC5OC(CO)C(O)C(O)C5O)C5C(C)(C)C(OC6OCC(O)C(O)C6O)CCC56CC46CCC23C)O1` [AGS IV, 3-O-β-D-xylopyranosyl-6-O-β-D-glucopyranosyl-cycloastragenol, reference compound], the “Phenotype: cardiac capsular oedema, lack of blood flow (share of zebrafish)” value with zebrafish embryos [1] (4 µM astemizole, 48 h) was 100% cardiac capsular oedema, lack of blood flow. For the same molecule, the Mortality with zebrafish embryos [1] (cotreated with 4 µM astemizole 48 h from 2 hpf) is on record as 3.3%. Moreover, the “Degree of protein binding with human plasma” value in series [2] was “up to 86.69%”. For the same molecule, the fraction unbound at 72 h, 0.476 mg/ml at HSA [3] (with ibuprofen 0.06 mg/ml) was 0.0718; at HSA [3] (with ibuprofen 0.3 mg/ml) it was 0.0613; on HSA [3] (with ibuprofen 1.2 mg/ml), 0.0281; on HSA [3] (with warfarin 0.06 mg/ml) it was 0.051; on HSA [3] (with warfarin 0.3 mg/ml), 0.089; on HSA [3] (with warfarin 1.2 mg/ml) it was 0.0781. The figures for the fraction unbound at 72 h, 0.476 mg/ml at HSA [3] (without site markers) and on HSA [5] (drug 0.476 mg/ml) were 0.0333 and 0.0258, respectively. In addition, in the series on zebrafish (100 µg/ml), the “Staining intensity of cardiac red blood cells (pixels) (mean ± se)” value is 1446 ± 54 pixels. For the same molecule, the “Antithrombotic effect (%)” value in the series with zebrafish (100 µg/ml) is given as 5%. The “Heart rate (beats/min) (Mean±SE)” value amounted to 148 ± 1 beats/min with zebrafish embryos [4] (2 h), 146 ± 2 beats/min with zebrafish embryos [4] (6 h) and 75 ± 25 beats/min in the series with zebrafish embryos [4] (24 h). Moreover, the “SV-BA spacing (µm) (Mean±SE)” value with zebrafish embryos [4] (2 h) came out at 210 ± 4 µm; in the series with zebrafish embryos [4] (6 h), 242 ± 7 µm; with zebrafish embryos [4] (24 h), 241 ± 4 µm. Moreover, the “Effect on astemizole-induced heart rate slowing and SV-BA spacing increase (in words)” value in the series on zebrafish embryos [4] (24 h) is given as “no significant changes”. For the same molecule, the fraction unbound at 72 h, 0.238 mg/ml on HSA [5] (drug 0.238 mg/ml) was 0.0538. The fraction unbound at 72 h, 0.714 mg/ml at HSA [5] (drug 0.714 mg/ml) was 0.0594.
